Measured values published in ChEMBL document CHEMBL1137137, “A novel series of 2-pyridyl-containing compounds as lysophosphatidic acid receptor antagonists: development of a nonhydrolyzable LPA3 receptor-selective antagonist” (Bioorg Med Chem Lett, 2004).

Experiments:
[1] = biological target: T1, Lysophosphatidic acid receptor 1 (Homo sapiens, UniProt Q92633); assay: Inhibitory concentration against Lysophosphatidic acid 1 (LPA1) receptor
[2] = biological target: T2, Lysophosphatidic acid receptor 3 (Homo sapiens, UniProt Q9UBY5); assay: Antagonist activity at Lysophosphatidic acid 3 (LPA3) receptor
T2 sequence (Q9UBY5 whole entry): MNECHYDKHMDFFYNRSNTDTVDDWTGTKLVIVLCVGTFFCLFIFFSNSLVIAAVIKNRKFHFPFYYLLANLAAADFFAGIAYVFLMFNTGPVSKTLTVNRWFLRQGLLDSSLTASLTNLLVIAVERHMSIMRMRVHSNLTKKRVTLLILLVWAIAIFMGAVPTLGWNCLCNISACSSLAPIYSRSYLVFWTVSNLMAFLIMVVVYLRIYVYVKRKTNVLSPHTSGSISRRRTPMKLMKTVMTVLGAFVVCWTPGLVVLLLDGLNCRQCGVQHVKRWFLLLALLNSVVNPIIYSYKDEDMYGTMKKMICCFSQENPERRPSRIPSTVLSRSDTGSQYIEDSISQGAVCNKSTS

[3] = biological target: T1, Lysophosphatidic acid receptor 1; assay: Binding affinity towards Lysophosphatidic acid 1 (LPA1) receptor

T1 sequence (Q92633 whole entry): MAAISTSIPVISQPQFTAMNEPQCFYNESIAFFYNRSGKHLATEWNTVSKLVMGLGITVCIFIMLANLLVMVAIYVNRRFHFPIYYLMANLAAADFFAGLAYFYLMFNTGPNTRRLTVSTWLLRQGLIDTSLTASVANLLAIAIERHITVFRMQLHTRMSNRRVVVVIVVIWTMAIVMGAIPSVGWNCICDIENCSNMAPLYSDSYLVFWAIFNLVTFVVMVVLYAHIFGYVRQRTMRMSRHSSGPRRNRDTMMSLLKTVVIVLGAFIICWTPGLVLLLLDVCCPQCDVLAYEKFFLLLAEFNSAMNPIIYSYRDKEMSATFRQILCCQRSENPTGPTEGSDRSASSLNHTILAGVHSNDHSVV

| Compound | IC50 [1] [nM] | IC50 [2] [nM] | Ki [3] [nM] |
| --- | --- | --- | --- |
| CCCCCCCC/C=C\CCCCCCCC(=O)N[C@H](CCP(=O)(O)O)Cc1ccc(OCc2ccccn2)cc1 | > 10000 | > 10000 |  |
| CCCCCCCC/C=C\CCCCCCCC(=O)N[C@@H](CCP(=O)(O)O)Cc1ccc(OCc2ccccn2)cc1 | > 10000 | > 10000 |  |
| CCCCCCCC/C=C\CCCCCCCC(=O)N[C@H](COP(=O)(O)O)Cc1ccc(OCc2cc(OC)c3ccccc3n2)cc1 | > 10000 | 2600 |  |
| CCCCCCCC/C=C\CCCCCCCC(=O)N[C@@H](COP(=O)(O)O)Cc1ccc(OCc2cc(OCCOC)ccn2)cc1 | 114 | 423 | 35 |
| CCCCCCCC/C=C\CCCCCCCC(=O)N[C@@H](COP(=O)(O)O)Cc1ccc(OCc2cc(OCC)ccn2)cc1 | 143 | 39 | 26 |
| CCCCCCCC/C=C\CCCCCCCC(=O)N[C@@H](COP(=O)(O)O)Cc1ccc(OCc2cc(OCC(F)(F)F)ccn2)cc1 | 84 | 48 | 19 |
| CCCCCCCC/C=C\CCCCCCCC(=O)N[C@@H](COP(=O)(O)O)Cc1ccc(OCc2cccnc2)cc1 | 992 | 1690 |  |
| CCCCCCCC/C=C\CCCCCCCC(=O)N[C@@H](COP(=O)(O)O)Cc1ccc(OCc2cc(OCCC)ccn2)cc1 | 141 | 1660 | 64 |
| CCCCCCCCCCCCCCCC(=O)N[C@H](CCP(=O)(O)O)Cc1ccc(OCc2ccccn2)cc1 | > 10000 | 1050 |  |
| CCCCCCCC/C=C\CCCCCCCC(=O)N[C@H](COP(=O)(O)O)Cc1ccc(OCc2ccncc2)cc1 | > 10000 | 6960 |  |
| CCCCCCCC/C=C\CCCCCCCC(=O)N[C@H](COP(=O)(O)O)Cc1ccc(OCc2cccnc2)cc1 | 4500 | 6240 |  |
| CCCCCCCC/C=C\CCCCCCCC(=O)N[C@H](CCP(=O)(O)O)Cc1ccc(OCc2ncc(C)c(OC)c2C)cc1 | > 10000 | 4000 |  |
| CCCCCCCC/C=C\CCCCCCCC(=O)N[C@@H](COP(=O)(O)O)Cc1ccc(OCc2ccccn2)cc1 |  | 175 |  |
| CCCCCCCC/C=C\CCCCCCCC(=O)N[C@H](COP(=O)(O)O)Cc1ccc(OCc2cccc(OC)n2)cc1 | > 10000 | 1090 |  |

Continued by falling IC50 [2], values first:

| IC50 [1] [nM] | IC50 [2] [nM] | Ki [3] [nM] | Compound |
| --- | --- | --- | --- |
| 735 | 2080 |  | CCCCCCCC/C=C\CCCCCCCC(=O)N[C@@H](COP(=O)(O)O)Cc1ccc(OCc2ccncc2)cc1 |
| 962 | 1160 |  | CCCCCCCC/C=C\CCCCCCCC(=O)N[C@@H](COP(=O)(O)O)Cc1ccc(OCc2cc(OC)c3ccccc3n2)cc1 |
|  | 940 |  | CCCCCCCC/C=C\CCCCCCCC(=O)N[C@H](COP(=O)(O)O)Cc1ccc(OCc2ccccn2)cc1 |
| 3690 | 561 |  | CCCCCCCC/C=C\CCCCCCCC(=O)N[C@H](COP(=O)(O)O)Cc1ccc(OCc2ncc(C)c(OC)c2C)cc1 |
| 1430 | 533 |  | CCCCCCCC/C=C\CCCCCCCC(=O)N[C@@H](COP(=O)(O)O)Cc1ccc(OCc2ccc3ccccc3n2)cc1 |
| 2840 | 455 |  | CCCCCCCC/C=C\CCCCCCCC(=O)N[C@@H](COP(=O)(O)O)Cc1ccc(OCc2cccc(OC)n2)cc1 |
| 4230 | 232 |  | CCCCCCCC/C=C\CCCCCCCC(=O)N[C@@H](Cc1ccc(OCc2ccccc2)cc1)CC(O)P(=O)(O)O (stereo partly specified) |
| > 10000 | 150 |  | CCCCCCCC/C=C\CCCCCCCC(=O)N[C@@H](CCP(=O)(O)O)Cc1ccc(OCc2ncc(C)c(OC)c2C)cc1 |
| 6250 | 102 |  | CCCCCCCC/C=C\CCCCCCCC(=O)N[C@@H](COP(=O)(O)O)Cc1ccc(OCc2cc(OC)ccn2)cc1 |
| 62 | 39 | 28 | CCCCCCCC/C=C\CCCCCCCC(=O)N[C@@H](COP(=O)(O)O)Cc1ccc(OCc2ncc(C)c(OC)c2C)cc1 |
